Assay results as given in patent US20250154472A1, “Culture Medium for Expanding Breast Epithelial Stem Cells” (Koninklijke Nederlandse Akademie Van Wetenschappen, priority 2014, published 2025).

Key:
Format in all cases: cell-based, human
[1] = test system: mammary tumor organoid line W859T; assay: Low throughput drug screen, cell viability (CellTiter-Glo 2.0), W859T; conditions: 7 days, 1 nM-30 μM, 96-well
Experimental: (§1) Organoids were photographed every 3-4 days (FIG. 8) and cell viability measured at day 7 using the CellTiter-Glo 2.0 assay (G9241, Promega) (FIG. 9).
(§2) All three organoid lines respond to Iressa at concentrations ˜10 μM indicating a dependence on EGFR signaling. […] Mammary tumor organoids are suitable for cell viability based low throughput drug screens in a 96-well format. We are currently testing the assay in a 384-well plate format which has been successfully established for colon cancer organoids.

[2] = test system: mammary tumor organoid line W854T; assay: Low throughput drug screen, cell viability (CellTiter-Glo 2.0), W854T; conditions: 7 days, 1 nM-30 μM, 96-well
Experimental: as §1, §2

[3] = test system: mammary tumor organoid line W855T; assay: Low throughput drug screen, cell viability (CellTiter-Glo 2.0), W855T; conditions: 7 days
Experimental: as §1, §2

[4] = test system: mammary tumor organoid line W854T; assay: Organoid growth in medium containing Nutlin-3; conditions: 5 μM Nutlin-3

SMILES	concentration at which organoids respond (growth/viability) [1] [µM]	concentration at which organoids respond (growth/viability) [2] [µM]	concentration at which organoids respond (growth/viability) ([3]; 1 nM-30 μM, 96-well) [µM]	growth inhibition at concentrations up 30 μM [3]	growth in medium containing the p53 stabilizer [4]
COc1cc2ncnc(Nc3ccc(F)c(Cl)c3)c2cc1OCCCN1CCOCC1 [Iressa]	~10	~10	~10	–	–
COc1ccc(C2=N[C@@H](c3ccc(Cl)cc3)[C@@H](c3ccc(Cl)cc3)N2C(=O)N2CCNC(=O)C2)c(OC(C)C)c1 [Nutlin-3]	> 30	> 30	–	perhaps the exception	readily grew
